In assay [1] the target is HEK293 membranes over-expressing WFS-1 (Homo sapiens (Human), UniProt O76024). Nature of the assay: Radioligand displacement assay (tritiated Compound 136 probe). The format is binding. Conditions: displacement of tritiated Compound 136. How it is done:
Cell pellets were re-suspended in 15 times packed cellular volume in 4° C. hypotonic lysis buffer (10 mM HEPES, pH 7.5 containing 1×Protease inhibitor, 0.5 mM EDTA and 2 mM DTT). Re-suspended cells were homogenized with 6-8 strokes in a dounce homogenizer kept on ice. Lysates were centrifuged at 500×G for 15 minutes at 4° C. without brake to decelerate rotor. Following centrifugation, remove the supernatant to a fresh tube and place on ice (Supernatant 1). Repeat the above steps on the lysed cell pellet using 0.5 the original volume of hypotonic lysis buffer and remove the 500× G supernatant (Supernatant 2) and combine with Supernatant 1. Transfer the combined supernatants to a 45-Ti ultracentrifuge tube and centrifuge at 100,000× G for 30 minutes. Following ultracentrifugation, carefully remove the supernatant and discard. Resuspend the 100,000× G pellet in cold resuspension buffer (10 mM HEPES, pH 7.5, 300 mM NaCl containing 1× Protease inhibitor, 1× EDTA and 2 mM DTT). Centrifuge sample at 500× G for 10 minutes with no brake and remove any cloudy, flocculent material. Resuspend pellet in resuspension buffer to approximately 2 mg/mL of protein concentration for use in radioligand binding assay and immunoblotting.
The binding affinities of compounds were determined by measuring the competitive displacement of a tritiated Compound 136 probe from purified HEK293 membranes over-expressing WFS-1. The data for the radioligand displacement assay are summarized in Table 47: A<0.06 μM; 0.06 μM≤B<0.6 μM; 0.6 μM≤C<3.0 μM; D≥3.0 μM.
The probe Kd was determined by titrating tritiated probe under the standard assay conditions plus and minus excess unlabeled probe and fitting the resulting data to a “One site—Total and nonspecific binding” model in Graphpad Prism, version 6.0, San Diego, CA, US. Initially, 0.25 μl of compound dissolved in DMSO at varying concentrations was dispensed to a 384 well plate. Membrane and probe were both prepared at 2× their final concentration in 1× assay buffer as described above. 25 μL of membrane was added to the wells and incubated for 10 minutes. 25 μL of diluted probe was then added to the wells. The assay was incubated for 90 minutes at room temperature. The entire assay volume was then transferred to Millipore GF/B 384-well plates pretreated with 15 μL 0.5% PEI. The filter plates were washed 3× with 75 μL 25 mM TRIS, ph7.5, 0.1% BSA and then dried overnight. Following addition of 45 μL UltimaGold scintillant, the samples were counted in a Perkin Elmer Topcount. The radioactivity remaining is a measure of bound probe. From the bound probe vs concentration of compound titration curve, the IC50 is determined by fitting the data to a standard 3 parameter IC50 model using either Graphpad Prism, version 6.0, San Diego, CA, US, or using GeneData Analyzer, Basel, Switzerland.

In the next assay the test system is Colo-205 cells. Nature of the assay: Calcium flux assay (FLIPR Calcium 5). The format is cell-based. The following applies: FLIPR Calcium 5, measured over 36 minutes. On the procedure: Compounds described herein induced ER stress by causing intracellular calcium flux. Calcium flux was measured in Colo-205 cells using the FLTPR® Calcium 5 Assay Kit according to manufacter's protocol (Molecular Devices, Cat. #R8186) on a FLIPR3 system (Molecular Devices). Calcium flux is measured over 36 minutes. The Colo-205 calcium flux assay data are summarized in Table 47: A<0.6 μM; 0.6 μM≤B<2.0 μM; 2.0 μM≤C<10.0 μM; D≥10.0 μM.

Assay [2] relates to Colo205-TCF/LEF-Luciferase (Luc) tumor. Nature of the assay: In vivo inhibition of TCF/LEF reporter activity in Colo-205 tumors. The following applies: TCF/LEF luciferase reporter in Colo-205 tumors, nu/nu mice, oral gavage. Further details: concentration or dose not given beside the values. On the procedure:
Colo205-TCF/LEF-Luciferase (Luc) tumor cells were expanded in complete DMEM cell culture media [DMEM (Life Technologies, product #11960-051) media supplemented with 10% FBS (Hyclone, catalog #SH30071.03), antimycotic/antibiotic (Life Technologies, product #15240-062), and Glutamax (Life Technologies, product #35050-061)] with 1 ug/ml puromycin. After reaching confluency/high density, the loosely attached cells in media were transferred from the flask to 50 ml conical tubes. Tumor cells adhered to plastic were detached with trypsin and combined with cells in the conical tubes. The tumor cells were triturated, counted, and pelleted by centrifugation. Cell pellets were resuspended in 0.9% injectable saline (6×10^7 cells/ml). A 50 ul volume (3×10^6 cells) was injected subcutaneously in the flanks of 4-6 wk old female nu/nu mice (Charles River Laboratories). Approximately 13-16 days after implantation, tumors between 200-500 mm^3 were selected (based on caliper measurements and applying the formula […]) and randomized into groups of n=4. Mice were dosed by oral gavage with compound dissolved in 1:3:5:1 EtOH:DMSO:PEG-400:H2O at a rate of 10 ml/kg or 1:3:5:1 EtOH:DMSO:PEG-400:H2O alone (Vehicle Control). Tumors were collected from mice euthanized by CO2 inhalation and snap frozen in liquid nitrogen. Tumors were stored in a −80 degrees C. freezer until they were processed.
Tumors were thawed on ice and homogenized in cold Lysis Buffer (20 mM Tris-HCl (pH 7.5), 150 mM NaCl, 1 mM Na2EDTA, 1 mM EGTA, 1% Triton, 2.5 mM sodium pyrophosphate, 1 mM beta-glycerophosphate, 1 mM Na3VO4, 1 μg/ml leupeptin, 0.05% SDS) using a closed tissue grinder system (Fisher Scientific, Cat #02-542-09) on ice according to manufacturer's instructions. For 100 mg of tumor, 500 uL of Lysis Buffer was used. Tumor lysate was transferred to a pre-chilled microcentrifuge tube and centrifuged at 10,000×g for 10 minutes at 4 degrees C. Supernatant was transferred to a new pre-chilled microcentrifuge tube and was used immediately for analysis of protein content and luciferase activity.
Protein content of tumor lysate supernatant was determined using the BCA assay (Life Technologies Cat #23225). Luciferase activity of tumor lysate supernatant was determined by addition of Steady-Glo luminescence reagent (Promega, Cat #E2550) according to manufacturer's instructions and measurement on a Pherastar luminescence plate reader (BMG Labtech). Luciferase activity was normalized to protein content.
(In general: A reporter such as luciferase makes a cellular process visible.)

Assay [3] concerns β-catenin-TCF-mediated reporter transcription activity in Colo 205 cells. Nature of the assay: Colo 205 reporter assay (TCF/LEF luciferase). Format: cell-based. The following applies: Colo 205 TCF/LEF luciferase reporter, five hours after addition of compound, read-out: TCF reporter Colo205 IC50. In outline: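 Luciferase signal from a TCF/LEF-driven reporter, stably integrated in Colo 205 colon cancer cells, was measured 5 h after compound addition.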

The next assay addresses Plk1 (Homo sapiens (Human), UniProt P53350). Nature of the assay: PLK1 inhibition assay (radioactive-phosphate incorporation). The following applies: Ki(app), read-out: PLK1 - 33P.ENZ - CB 10 Ki. The format is biochemical. How it is done: Compounds were screened for their ability to inhibit Plk1 using a radioactive-phosphate incorporation assay. Assays were carried out in a mixture of 25 mM HEPES (pH 7.5), 10 mM MgCl2, 25 mM NaCl, and 2 mM DTT. Final substrate concentrations were 20 μM [γ-33P]ATP (35mCi 33P ATP/mmol ATP, Perkin Elmer/Sigma Chemicals) and 9 uM Sam68 protein. Assays were carried out at room temperature in the presence of 15 nM Plk1. An assay stock buffer solution was prepared containing all of the reagents listed above, with the exception of ATP and the test compound of interest. 0.75 μL of DMSO stock containing serial dilutions of the test compound (typically starting from a final concentration of 10 μM with 2-fold serial dilutions—final DMSO concentration 1.5%) was placed in a 384 well plate followed by addition of 25 μL [γ-33P]ATP (final concentration 20 μM). The reaction was initiated by addition of 25 μL of the assay stock buffer solution.
The reaction was stopped after 45 minutes by the addition of 25 μL 30% trichloroacetic acid (TCA) containing 10 mM cold ATP. The entire quenched reaction was transferred to a 384-well glass fiber filter plate (Millipore, Cat no. MZFBNOW50). The plate was washed with 3×5% TCA. After drying, 40 μL of Ultima Gold liquid scintillation cocktail (Perkin Elmer) was added to the well prior to scintillation counting in a PerkinElmer TopCount.
After removing mean background values for all of the data points, Ki(app) data were calculated from non-linear regression analysis of the initial rate data using the Prism software package (GraphPad Prism, GraphPad Software, San Diego California, USA).

The subject of a further assay is HepG2 XBP1(u)-Luc cells. Nature of the assay: HepG2 XBP1 reporter assay. The format is cell-based. Conditions: 6 h. How it is done: HepG2 hepatoma cells were transduced with a retrovirus encoding the cDNA for unspliced (u) XBP1, which contains a non-processed intron, fused to the cDNA for firefly luciferase. Upon induction of ER stress, the non-processed intron of XBP1(u) is spliced out by active IRE1alpha endonuclease. The resulting spliced (s) XBP1 is now in frame with luciferase which causes the production of active luciferase protein, resulting in bioluminescence
HepG2 XBP1(u)-Luc cells were plated […] Cultured cells with a stably transfected reporter construct were plated at approximately 30,000 cells per well into 96 well multi-well plates for twenty four hours. The testing compounds were then added to the wells in 3-fold serial dilutions using a twenty seven micromolar top concentration. A series of control wells for each cell type received only compound solvent. Six hours after the addition of compound, reporter activity for luciferase was assayed, by addition of the SteadyGlo luminescence reagent (Promega). The reporter luminescence activity was measured using Pherastar plate reader (BMG Labtech). Readings was normalized to DMSO only treated cells, and normalized activities were then used in the IC50 calculations. The HepG2 XBP1 reporter assay data are summarized in Table 47: A<0.6 μM; 0.6 μM≤B<2.0 μM; 2.0 μM≤C<10.0 μM; D≥10.0 μM.

Read-outs that look alike come from different tables or passages of the source.

Sequence of HEK293 membranes over-expressing WFS-1 (O76024 whole entry): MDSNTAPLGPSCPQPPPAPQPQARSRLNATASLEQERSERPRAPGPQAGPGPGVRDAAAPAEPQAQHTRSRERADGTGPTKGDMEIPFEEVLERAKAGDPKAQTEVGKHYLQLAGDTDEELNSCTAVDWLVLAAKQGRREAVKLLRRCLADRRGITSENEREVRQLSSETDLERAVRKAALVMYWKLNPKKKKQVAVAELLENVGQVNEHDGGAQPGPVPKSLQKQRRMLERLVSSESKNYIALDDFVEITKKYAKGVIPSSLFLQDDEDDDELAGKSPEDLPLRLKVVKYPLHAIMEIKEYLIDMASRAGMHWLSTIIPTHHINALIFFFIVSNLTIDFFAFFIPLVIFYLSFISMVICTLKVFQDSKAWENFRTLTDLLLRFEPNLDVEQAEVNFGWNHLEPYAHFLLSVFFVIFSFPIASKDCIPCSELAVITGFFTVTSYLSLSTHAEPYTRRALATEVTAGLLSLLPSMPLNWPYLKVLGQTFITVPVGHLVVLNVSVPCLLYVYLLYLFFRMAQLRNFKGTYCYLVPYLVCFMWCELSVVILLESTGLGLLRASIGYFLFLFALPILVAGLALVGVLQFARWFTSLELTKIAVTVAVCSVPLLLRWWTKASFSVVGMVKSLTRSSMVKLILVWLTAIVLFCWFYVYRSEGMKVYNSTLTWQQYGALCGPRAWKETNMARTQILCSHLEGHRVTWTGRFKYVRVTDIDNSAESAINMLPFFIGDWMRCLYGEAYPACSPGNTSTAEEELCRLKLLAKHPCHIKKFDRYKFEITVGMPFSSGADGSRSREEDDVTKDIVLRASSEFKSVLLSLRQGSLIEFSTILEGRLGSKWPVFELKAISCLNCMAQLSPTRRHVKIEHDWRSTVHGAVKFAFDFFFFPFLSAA
Sequence of Plk1 (P53350 whole entry, species assumed): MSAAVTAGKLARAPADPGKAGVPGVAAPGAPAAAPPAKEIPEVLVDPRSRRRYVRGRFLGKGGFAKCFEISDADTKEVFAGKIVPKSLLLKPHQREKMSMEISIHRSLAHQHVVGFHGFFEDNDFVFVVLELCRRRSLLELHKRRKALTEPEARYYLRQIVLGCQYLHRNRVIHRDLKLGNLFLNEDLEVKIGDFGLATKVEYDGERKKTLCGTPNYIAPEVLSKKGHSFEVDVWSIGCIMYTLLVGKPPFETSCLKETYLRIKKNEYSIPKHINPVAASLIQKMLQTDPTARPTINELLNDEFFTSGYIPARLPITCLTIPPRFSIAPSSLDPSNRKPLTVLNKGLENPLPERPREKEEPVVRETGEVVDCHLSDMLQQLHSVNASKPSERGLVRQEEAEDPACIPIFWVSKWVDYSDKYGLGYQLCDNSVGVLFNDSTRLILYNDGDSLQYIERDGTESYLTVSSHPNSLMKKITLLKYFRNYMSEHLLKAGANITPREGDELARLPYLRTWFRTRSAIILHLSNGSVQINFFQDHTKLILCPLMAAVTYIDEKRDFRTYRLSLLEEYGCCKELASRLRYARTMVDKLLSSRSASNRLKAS

In the case of `Cc1nc(N[C@H]2C[C@@H](COc3ccc(C(F)(F)F)nc3)C2)nc2c1NC(=O)[C@H](C(C)C)N2C` (relative stereo) [Compound 551, (S)-7-isopropyl-4,8-dimethyl-2-((cis-3-(((6-(trifluoromethyl)pyridin-3-yl)oxy)methyl)cyclobutyl)amino)-7,8-dihydropteridin-6(511)-one], the IC50 is below 0.06 µM in assay [1] and below 0.3 µM in assay [3]. The EC50 with Colo-205 cells was below 0.6 µM. Besides, the “Percent Remaining Activity at 8 hrs after Dosing” value in assay [2] is given as 20%.

Turning to `CC[C@@]1(C)C(=O)N(C)c2cnc(NCc3cnn(Cc4ccc(F)cc4)c3)nc2N1C` [Compound 2, (7S)-7-ethyl-2-(((1-(4-fluorobenzyl)-1H-pyrazol-4-yl)methyl)amino)-5,7,8-trimethyl-7,8-dihydropteridin-6(5H)-one], the Ki at Plk1 was above 4 µM.

On to `CC[C@]1(C)C(=O)N(C)c2cnc(NCc3cnn(Cc4ccc(F)cc4)c3)nc2N1C` [Compound 3, (7R)-7-ethyl-2-(((1-(4-fluorobenzyl)-1H-pyrazol-4-yl)methyl)amino)-5,7,8-trimethyl-7,8-dihydropteridin-6(5H)-one], for which the Ki on Plk1 is above 4 µM. The IC50 in assay [3] (Homo sapiens, COLO 205, 5 h) is below 0.3 µM.

Regarding `Cc1nc(NCc2cnn(CC3CCC3)c2)nc2c1NC(=O)[C@H](C)N2C` [Compound 5, (7S)-2-(((1-(cyclobutylmethyl)-1H-pyrazol-4-yl)methyl)amino)-4,7,8-trimethyl-7,8-dihydropteridin-6(5H)-one], at Plk1, the Ki was above 4 µM. Moreover, the concentration for half-maximal inhibition (IC50) in assay [3] (Homo sapiens, COLO 205, 5 h) was 0.3 to 1 µM.

Take `Cc1nc(N[C@H]2C[C@H](Oc3cc(F)c(F)cc3F)C2)nc2c1NC(=O)[C@H](C)N2C` [Compound 292, (7S)-4,7,8-trimethyl-2-((trans 3-(2,4,5-trifluorophenoxy)cyclobutyl)amino)-7,8-dihydropteridin-6(5H)-one]: the IC50 in the assay with HepG2 XBP1(u)-Luc cells (Homo sapiens) is below 0.6 µM; in assay [1], below 0.06 µM; in assay [3] (Homo sapiens, COLO 205, 5 h), below 0.3 µM. Moreover, the EC50 in the assay on Colo-205 cells (Homo sapiens, COLO 205, 0.6 h) was below 0.6 µM.

`CO[C@H](C)[C@H]1C(=O)Nc2c(C)nc(N[C@H]3C[C@@H](COc4ccc(C(F)(F)F)nc4)C3)nc2N1C` [Compound 643, (S)-7-((R)—1-methoxyethyl)-4,8-dimethyl-2-((cis-3-(((6-(trifluoromethyl)pyridin-3-yl)oxy)methyl)cyclobutyl)amino)-7,8-dihydropteridin-6(5H)-one]: the IC50 in assay [1] was below 0.06 µM; in assay [3] (Homo sapiens, COLO 205, 5 h), below 0.3 µM. Also, the half-maximal effective concentration (EC50) in the assay with Colo-205 cells (Homo sapiens, COLO 205, 0.6 h) is below 0.6 µM. In addition, in assay [2], the “Percent Remaining Activity at 8 hrs after Dosing” value is recorded as 22%.

Regarding `CC[C@H]1C(=O)Nc2c(C)nc(NCc3cnn(C4CC(F)(F)C4)c3)nc2N1C` [Compound 795, (S)-2-(((1-(3,3-difluorocyclobutyl)-1H-pyrazol-4-yl)methyl)amino)-7-ethyl-4,8-dimethyl-7,8-dihydropteridin-6(5H)-one], the IC50 in the assay with HepG2 XBP1(u)-Luc cells (Homo sapiens) was below 0.6 µM; in assay [1], 0.06 to 0.6 µM; in assay [3] (Homo sapiens, COLO 205, 5 h) it was below 0.3 µM. Moreover, in the assay on Colo-205 cells (Homo sapiens, COLO 205, 0.6 h), the concentration for a half-maximal effect (EC50) is below 0.6 µM.

As to `Cc1nc(N[C@H]2C[C@@H](COc3cnc(C(F)(F)F)nc3)C2)nc2c1NC(=O)[C@H](C(C)C)N2C` [Compound 1417, (S)-7-isopropyl-4,8-dimethyl-2-(((1s,3R)-3-(((2-(trifluoromethyl)pyrimidin-5-yl)oxy)methyl)cyclobutyl)amino)-7,8-dihydropteridin-6(5H)-one], the half-inhibitory concentration (IC50) with HepG2 XBP1(u)-Luc cells is below 0.6 µM; in assay [1] it was 0.06 to 0.6 µM; in assay [3] it was below 0.3 µM. In the assay on Colo-205 cells, the EC50 is below 0.6 µM.

By IC50 is commonly meant the concentration at which inhibition is half-maximal. The term EC50 denotes the midpoint of the concentration-response curve.

For the origin of these results see patent US20230312587A1, “PTERIDINONE COMPOUNDS AND USES THEREOF” (Vertex Pharmaceutical Incorporated, priority 2018, published 2023).
